Measured values as given in US4785001A, “Ergoline esters” (Farmitalia Carlo Erba S.p.A., priority 1986, dated 1988).

Columns and labels:
[1] = orientative acute toxicity (LD50), p.o. mice; conditions: mouse, in vivo, po
[2] = electroencephalographic effects (EEG) in the rat; type: in vivo; conditions: 20 mg/Kg p.o.
Method: Moreover, the compound prepared in Example 1 was tested at the dose of 20 mg/Kg p.o. in the rat and the electroencephalographic effects (EEG) were observed. […] See Buonamici, M., Young, G. A. and Khazon (1982), Neuropharmacology, 21 : 825-829.

## CO[C@]12C[C@@H](COC(=O)C3=CN(C)C=CC3)CN(C)[C@@H]1Cc1cn(C)c3cccc2c13 [Example 1, 10-Methoxy-,1,6-dimethyl-8β-(1-methyl-,1,4-dihydro-3-pyridyl-carbonyloxymethyl)-ergoline]
[1]
  LD50: > 800 mg/kg
[2]
  electroencephalographic effects (EEG): increased and long-lasting modifications
